Source: PubChem BioAssay AID248 (DTP/NCI, 2004)
“And” between values parts separate entries of the source, which are not always exact repeats. Identical values can stand only once. Toxic doses and inconclusive results are not listed.

Test system: L1210 leukemia ip in BDF1 mice, survival T/C
Experiment: NCI In Vivo Anticancer Drug Screen. Data for tumor model L1210 Leukemia (intraperitoneal) in B6D2F1 (BDF1) mice
Settings: endpoint: mean survival time, higher = longer survival
Summary of the method: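 Value reflects the ratio of survival in compound-treated mice to survival in vehicle-treated controls, with both groups carrying the same transplanted tumor.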

[1] = dose: 2.0 mg/kg/injection, schedule: Q01DX001 (ip), vehicle: other
[2] = dose: 100.0 mg/kg/injection, schedule: Q01DX009 (ip), vehicle: saline
[3] = dose: 100.0 mg/kg/injection, schedule: Q04DX003 (ip), vehicle: saline
[4] = dose: 200.0 mg/kg/injection, schedule: Q04DX003 (ip), vehicle: saline
[5] = dose: 100.0 mg/kg/injection, schedule: Q01DX001 (ip), vehicle: saline
[6] = dose: 200.0 mg/kg/injection, schedule: Q01DX001 (ip), vehicle: saline
[7] = dose: 100.0 mg/kg/injection, schedule: Q01DX001 (ip), vehicle: Klucel (hydroxypropylcellulose) (HPC)
[8] = dose: 200.0 mg/kg/injection, schedule: Q01DX001 (ip), vehicle: Klucel (hydroxypropylcellulose) (HPC)
[9] = dose: 400.0 mg/kg/injection, schedule: Q01DX001 (ip), vehicle: Klucel (hydroxypropylcellulose) (HPC)

O=NN(CCF)C(=O)NC1CCS(=O)(=O)CC1
T/C (dose: 1.12 mg/kg/injection, schedule: Q01DX015 (ip), vehicle: other): 119 % of control
T/C (dose: 1.76 mg/kg/injection, schedule: Q01DX015 (ip), vehicle: other): 179 % of control
T/C (dose: 1.9 mg/kg/injection, schedule: Q01DX001 (ip), vehicle: saline with Tween-80): 201 % of control
T/C [1]: 118 % of control
T/C (dose: 2.68 mg/kg/injection, schedule: Q01DX015 (ip), vehicle: other): 309 % of control and 311 % of control
T/C (dose: 3.52 mg/kg/injection, schedule: Q02DX008 (ip), vehicle: other): 231 % of control and 246 % of control
T/C (dose: 3.75 mg/kg/injection, schedule: Q01DX001 (ip), vehicle: other): 160 % of control
T/C (dose: 3.8 mg/kg/injection, schedule: Q01DX001 (ip), vehicle: saline with Tween-80): 207 % of control
T/C (dose: 4.0 mg/kg/injection, schedule: Q01DX015 (ip), vehicle: other): 422 % of control and 644 % of control
T/C (dose: 4.7 mg/kg/injection, schedule: Q## X004 (ip), vehicle: other): 268 % of control
T/C (dose: 5.0 mg/kg/injection, schedule: Q01DX001 (ip), vehicle: other): 163 % of control
T/C (dose: 5.36 mg/kg/injection, schedule: Q02DX008 (ip), vehicle: other): 484 % of control and 538 % of control
T/C (dose: 5.6 mg/kg/injection, schedule: Q## X032 (ip), vehicle: other): 261 % of control
T/C (dose: 6.0 mg/kg/injection, schedule: Q01DX015 (ip), vehicle: other): 290 % of control and 433 % of control
T/C (dose: 6.0 mg/kg/injection, schedule: Q## X032 (ip), vehicle: other): 153 % of control
T/C (dose: 7.0 mg/kg/injection, schedule: Q## X004 (ip), vehicle: other): 519 % of control and 532 % of control
T/C (dose: 7.5 mg/kg/injection, schedule: Q01DX001 (ip), vehicle: other): 302 % of control
T/C (dose: 7.5 mg/kg/injection, schedule: Q01DX001 (ip), vehicle: saline with Tween-80): 557 % of control
T/C (dose: 8.0 mg/kg/injection, schedule: Q01DX001 (ip), vehicle: other): 186 % of control
T/C (dose: 8.0 mg/kg/injection, schedule: Q02DX008 (ip), vehicle: other): 426 % of control and 715 % of control
T/C (dose: 9.0 mg/kg/injection, schedule: Q01DX015 (ip), vehicle: other): 339 % of control
T/C (dose: 9.4 mg/kg/injection, schedule: Q01DX001 (ip), vehicle: other): 364 % of control
T/C (dose: 10.0 mg/kg/injection, schedule: Q01DX001 (ip), vehicle: other): 340 % of control
T/C (dose: 10.7 mg/kg/injection, schedule: Q## X004 (ip), vehicle: other): 605 % of control and 650 % of control
T/C (dose: 12.0 mg/kg/injection, schedule: Q02DX008 (ip), vehicle: other): 330 % of control and 476 % of control
T/C (dose: 13.0 mg/kg/injection, schedule: Q## X032 (ip), vehicle: other): 468 % of control
T/C (dose: 14.0 mg/kg/injection, schedule: Q01DX001 (ip), vehicle: other): 577 % of control and 580 % of control
T/C (dose: 15.0 mg/kg/injection, schedule: Q01DX001 (ip), vehicle: other): 365 % of control
T/C (dose: 15.0 mg/kg/injection, schedule: Q01DX001 (ip), vehicle: saline with Tween-80): 666 % of control
T/C (dose: 16.0 mg/kg/injection, schedule: Q01DX001 (ip), vehicle: other): 315 % of control
T/C (dose: 16.0 mg/kg/injection, schedule: Q## X004 (ip), vehicle: other): 365 % of control and 580 % of control
T/C (dose: 18.0 mg/kg/injection, schedule: Q02DX008 (ip), vehicle: other): 326 % of control
T/C (dose: 19.0 mg/kg/injection, schedule: Q## X032 (ip), vehicle: other): 180 % of control and 430 % of control
T/C (dose: 20.0 mg/kg/injection, schedule: Q01DX001 (ip), vehicle: other): 365 % of control
T/C (dose: 24.0 mg/kg/injection, schedule: Q## X004 (ip), vehicle: other): 231 % of control and 271 % of control
T/C (dose: 29.0 mg/kg/injection, schedule: Q## X032 (ip), vehicle: other): 115 % of control
T/C (dose: 30.0 mg/kg/injection, schedule: Q01DX001 (ip), vehicle: other): 365 % of control
T/C (dose: 30.0 mg/kg/injection, schedule: Q01DX001 (ip), vehicle: saline with Tween-80): 677 % of control
T/C (dose: 31.0 mg/kg/injection, schedule: Q01DX001 (ip), vehicle: other): 315 % of control
T/C (dose: 36.0 mg/kg/injection, schedule: Q## X004 (ip), vehicle: other): 253 % of control
T/C (dose: 40.0 mg/kg/injection, schedule: Q01DX001 (ip), vehicle: other): 334 % of control

CC/C(CC(C)CC)=N\O (centres undefined)
T/C [2]: 101 % of control
T/C [3]: 93 % of control
T/C (dose: 200.0 mg/kg/injection, schedule: Q01DX009 (ip), vehicle: saline): 101 % of control
T/C [4]: 98 % of control
T/C (dose: 400.0 mg/kg/injection, schedule: Q01DX009 (ip), vehicle: saline): 101 % of control
T/C (dose: 400.0 mg/kg/injection, schedule: Q04DX003 (ip), vehicle: saline): 91 % of control

CC1(C(=O)O)COC(=O)N1 (centres undefined)
T/C (dose: 25.0 mg/kg/injection, schedule: Q04DX002 (ip), vehicle: saline): 96 % of control
T/C (dose: 50.0 mg/kg/injection, schedule: Q04DX002 (ip), vehicle: saline): 104 % of control
T/C (dose: 100.0 mg/kg/injection, schedule: Q04DX002 (ip), vehicle: saline): 86 % of control

CCC(/C=C1\[Se]c2ccc(C)cc2N1CC)=C\c1[se]c2ccc(C)cc2[n+]1CC
T/C [1]: 103 % of control
T/C (dose: 4.0 mg/kg/injection, schedule: Q01DX001 (ip), vehicle: other): 101 % of control

O=S(=O)(ON/N=C/c1cc2ccccc2c2ccccc12)c1ccccc1
T/C (dose: 75.0 mg/kg/injection, schedule: Q01DX009 (ip), vehicle: Klucel (hydroxypropylcellulose) (HPC)): 96 % of control
T/C (dose: 150.0 mg/kg/injection, schedule: Q01DX009 (ip), vehicle: Klucel (hydroxypropylcellulose) (HPC)): 96 % of control
T/C (dose: 300.0 mg/kg/injection, schedule: Q01DX009 (ip), vehicle: Klucel (hydroxypropylcellulose) (HPC)): 98 % of control

CCC(N)C(O)C(F)(F)C(F)(F)C(F)(F)F (centres undefined)
T/C [5]: 112 % of control
T/C [6]: 103 % of control

CCOC(=O)c1[nH]c(C)c(/C(=N/NC(N)=O)C(=O)OC)c1C
T/C [7]: 103 % of control
T/C [8]: 110 % of control
T/C [9]: 98 % of control

Nc1ccc(OCCNS(=O)(=O)c2cccc(S(=O)(=O)F)c2)c(Cl)c1
T/C (dose: 50.0 mg/kg/injection, schedule: Q01DX009 (ip), vehicle: saline): 97 % of control
T/C [2]: 102 % of control
T/C [3]: 97 % of control
T/C [4]: 97 % of control

Nc1cnc([S][Sn]([c]2ccccc2)([c]2ccccc2)[c]2ccccc2)s1
T/C (dose: 6.25 mg/kg/injection, schedule: Q04DX002 (ip), vehicle: saline with Tween-80): 101 % of control
T/C (dose: 12.5 mg/kg/injection, schedule: Q04DX002 (ip), vehicle: saline with Tween-80): 96 % of control
T/C (dose: 25.0 mg/kg/injection, schedule: Q04DX002 (ip), vehicle: saline with Tween-80): 104 % of control

Cc1ccc(CN(CC(=O)O)N=O)cc1
T/C (dose: 100.0 mg/kg/injection, schedule: Q01DX Z (ip), vehicle: saline): 107 % of control
T/C (dose: 200.0 mg/kg/injection, schedule: Q01DX Z (ip), vehicle: saline): 100 % of control

O=C1c2ccccc2C(=O)N1c1cc([N+](=O)[O-])cc([N+](=O)[O-])c1O
T/C [7]: 98 % of control
T/C [8]: 95 % of control
T/C [9]: 88 % of control

CC1(C)CC(=O)c2c(OC(=O)N(CCCl)CCCl)cc(OC(=O)N(CCCl)CCCl)cc2O1
T/C (dose: 25.0 mg/kg/injection, schedule: Q04DX002 (ip), vehicle: alcohol): 94 % of control
T/C (dose: 50.0 mg/kg/injection, schedule: Q04DX002 (ip), vehicle: alcohol): 113 % of control
T/C (dose: 100.0 mg/kg/injection, schedule: Q04DX002 (ip), vehicle: alcohol): 94 % of control
T/C (dose: 200.0 mg/kg/injection, schedule: Q04DX002 (ip), vehicle: alcohol): 97 % of control
T/C (dose: 400.0 mg/kg/injection, schedule: Q04DX002 (ip), vehicle: alcohol): 90 % of control

NNC(=O)c1ccccc1CO
T/C (dose: 100.0 mg/kg/injection, schedule: Q01DX001 (ip), vehicle: saline with Tween-80): 100 % of control
T/C (dose: 200.0 mg/kg/injection, schedule: Q01DX001 (ip), vehicle: saline with Tween-80): 103 % of control

Cc1cc(=O)c2cc(Cc3ccc(N)cc3)ccc2[nH]1
T/C [5]: 101 % of control
T/C [6]: 108 % of control

CCCCCCCCCCCCCCCCOc1c(Cl)cc(Cl)cc1Cl
T/C (dose: 100.0 mg/kg/injection, schedule: Q04DX002 (ip), vehicle: Klucel (hydroxypropylcellulose) (HPC)): 102 % of control
T/C (dose: 200.0 mg/kg/injection, schedule: Q04DX002 (ip), vehicle: Klucel (hydroxypropylcellulose) (HPC)): 98 % of control
T/C (dose: 400.0 mg/kg/injection, schedule: Q04DX002 (ip), vehicle: Klucel (hydroxypropylcellulose) (HPC)): 102 % of control
